From PMC7305236, “The atypical chemokine receptor ACKR3/CXCR7 is a broad-spectrum scavenger for opioid peptides” (Nature Communications, 2020) come the findings set out here.

The structures appear in SMILES notation. Where two headings read alike, the source gives them in different places.

Assay [1] has as its target T1, ACKR (Homo sapiens, UniProt P25106).
T1 construct: expressed in transfected cells; host or cells: U87 cells (human glioblastoma)
The experiment in a line: Figure 6h, ACKR, DMSO vs Bafilomycin treatment. The class given is cell-based. The note with it: n = 3 or 4 as in cell.

For assay [2], the target named is T2, CCR4 (Homo sapiens, UniProt P51679).
T2 construct: expressed in transfected cells
T2 sequence (P51679 1-360): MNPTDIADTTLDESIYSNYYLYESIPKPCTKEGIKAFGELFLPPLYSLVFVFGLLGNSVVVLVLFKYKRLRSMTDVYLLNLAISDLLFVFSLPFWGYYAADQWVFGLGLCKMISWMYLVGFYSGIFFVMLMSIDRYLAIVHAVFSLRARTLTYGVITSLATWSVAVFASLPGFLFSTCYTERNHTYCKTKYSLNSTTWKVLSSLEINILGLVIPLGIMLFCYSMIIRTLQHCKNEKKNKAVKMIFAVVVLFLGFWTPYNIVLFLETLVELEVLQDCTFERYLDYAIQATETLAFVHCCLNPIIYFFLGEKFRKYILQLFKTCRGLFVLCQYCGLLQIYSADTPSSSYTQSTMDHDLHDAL
The assay is described as follows: Figure S2a opioid peptide screen on chemokine receptors. More on the design: dose or concentration left out as unconfirmed. The class given is cell-based.

The target in assay [3] is KOR (Homo sapiens, UniProt P41145). The experiment in a line: Figure 6h, KOR, DMSO vs Bafilomycin treatment. The class given is cell-based. Also on record: expressed in transfected cells; host or cells: U87 (human glioblastoma). The note with it: n = 3 or 4 as in cell.
The target of assay [4] is T3, CCR2 (Homo sapiens, UniProt P41597).
T3 construct: expressed in transfected cells
T3 sequence (P41597 1-360 isoform P41597-2): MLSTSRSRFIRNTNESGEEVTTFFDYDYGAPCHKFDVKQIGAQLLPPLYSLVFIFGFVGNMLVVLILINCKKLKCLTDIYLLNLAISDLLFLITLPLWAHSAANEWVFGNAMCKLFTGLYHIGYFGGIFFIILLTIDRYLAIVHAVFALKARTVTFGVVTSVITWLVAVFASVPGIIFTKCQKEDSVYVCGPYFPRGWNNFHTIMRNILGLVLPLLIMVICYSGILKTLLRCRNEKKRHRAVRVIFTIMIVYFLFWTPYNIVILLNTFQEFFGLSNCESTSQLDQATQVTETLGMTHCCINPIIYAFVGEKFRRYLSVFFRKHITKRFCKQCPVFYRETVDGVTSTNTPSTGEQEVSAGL
The experiment in a line: Figure S2a opioid peptide screen on chemokine receptors. The class given is cell-based. More on the design: dose or concentration left out as unconfirmed.

Assay [5] deals with T4, CXCR5 (Homo sapiens, UniProt P32302).
T4 construct: expressed in transfected cells
T4 sequence (P32302 1-372): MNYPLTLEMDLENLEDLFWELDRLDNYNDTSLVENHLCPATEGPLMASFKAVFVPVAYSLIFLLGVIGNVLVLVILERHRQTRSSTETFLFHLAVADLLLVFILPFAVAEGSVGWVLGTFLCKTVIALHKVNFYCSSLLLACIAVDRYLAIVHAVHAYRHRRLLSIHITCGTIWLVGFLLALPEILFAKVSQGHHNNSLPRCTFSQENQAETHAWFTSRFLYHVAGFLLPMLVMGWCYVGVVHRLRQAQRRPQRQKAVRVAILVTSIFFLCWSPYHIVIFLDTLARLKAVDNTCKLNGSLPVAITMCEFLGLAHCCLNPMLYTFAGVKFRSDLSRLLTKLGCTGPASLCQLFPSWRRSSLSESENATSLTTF
Described as above. The class given is cell-based. More on the design: dose or concentration left out as unconfirmed.

The target in assay [6] is T5, CXCR4 (Homo sapiens, UniProt P61073).
T5 construct: expressed in transfected cells; host or cells: U87, transient cotransfection of pNBe vectors
The assay is described as follows: cell-based. Also on record: dose or concentration left out as unconfirmed. The note with it: Figure S2a, read-out: CXCR4 activity, ctrl+ = 100.

Assay [7] concerns the target T6, CCR6 (Homo sapiens, UniProt P51684).
T6 construct: expressed in transfected cells
T6 sequence (P51684 1-374): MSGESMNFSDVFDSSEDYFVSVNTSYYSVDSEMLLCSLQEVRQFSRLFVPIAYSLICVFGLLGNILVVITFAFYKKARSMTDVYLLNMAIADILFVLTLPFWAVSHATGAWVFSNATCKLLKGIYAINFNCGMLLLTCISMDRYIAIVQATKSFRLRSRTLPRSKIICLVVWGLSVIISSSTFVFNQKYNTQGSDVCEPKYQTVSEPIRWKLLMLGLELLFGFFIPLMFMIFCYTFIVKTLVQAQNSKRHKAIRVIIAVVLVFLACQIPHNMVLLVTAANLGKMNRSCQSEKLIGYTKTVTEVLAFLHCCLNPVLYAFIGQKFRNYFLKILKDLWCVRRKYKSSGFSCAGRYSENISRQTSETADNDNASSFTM
The experiment in a line: Figure S2a opioid peptide screen on chemokine receptors. The class given is cell-based. Also on record: dose or concentration left out as unconfirmed.

The mark [8] stands for this setting: 'DMSO vs Bafilomycin treatment'.
Where [9] appears, read: first of two columns under 'DMSO vs Bafilomycin treatment' (presumably DMSO).
The mark [10] stands for this setting: replicate 1, read-out: CCR4 activity, ctrl+ = 100.
Where [11] appears, read: replicate 2, read-out: CCR4 activity, ctrl+ = 100.
Where [12] appears, read: replicate 3, read-out: CCR4 activity, ctrl+ = 100.
Where [13] appears, read: replicate 1, read-out: CCR2 activity, ctrl+ = 100.
Where [14] appears, read: replicate 2, read-out: CCR2 activity, ctrl+ = 100.
The mark [15] stands for this setting: replicate 3, read-out: CCR2 activity, ctrl+ = 100.
[16] abbreviates: replicate 1, read-out: CXCR5 activity, ctrl+ = 100.
The mark [17] stands for this setting: replicate 2, read-out: CXCR5 activity, ctrl+ = 100.
[18] abbreviates: replicate 3, read-out: CXCR5 activity, ctrl+ = 100.
The mark [19] stands for this setting: replicate 1, read-out: CCR6 activity, ctrl+ = 100.
The mark [20] stands for this setting: replicate 2, read-out: CCR6 activity, ctrl+ = 100.
[21] abbreviates: replicate 3, read-out: CCR6 activity, ctrl+ = 100.

T5 sequence (P61073 whole entry): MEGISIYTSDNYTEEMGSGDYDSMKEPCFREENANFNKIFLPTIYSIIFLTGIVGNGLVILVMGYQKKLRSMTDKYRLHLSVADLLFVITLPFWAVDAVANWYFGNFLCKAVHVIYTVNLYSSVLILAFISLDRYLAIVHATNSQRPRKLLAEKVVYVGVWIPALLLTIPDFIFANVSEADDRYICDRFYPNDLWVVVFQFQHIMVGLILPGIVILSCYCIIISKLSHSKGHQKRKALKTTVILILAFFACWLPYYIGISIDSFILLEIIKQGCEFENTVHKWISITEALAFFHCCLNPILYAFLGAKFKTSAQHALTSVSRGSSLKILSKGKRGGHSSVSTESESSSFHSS
Chain of KOR (P41145 whole entry): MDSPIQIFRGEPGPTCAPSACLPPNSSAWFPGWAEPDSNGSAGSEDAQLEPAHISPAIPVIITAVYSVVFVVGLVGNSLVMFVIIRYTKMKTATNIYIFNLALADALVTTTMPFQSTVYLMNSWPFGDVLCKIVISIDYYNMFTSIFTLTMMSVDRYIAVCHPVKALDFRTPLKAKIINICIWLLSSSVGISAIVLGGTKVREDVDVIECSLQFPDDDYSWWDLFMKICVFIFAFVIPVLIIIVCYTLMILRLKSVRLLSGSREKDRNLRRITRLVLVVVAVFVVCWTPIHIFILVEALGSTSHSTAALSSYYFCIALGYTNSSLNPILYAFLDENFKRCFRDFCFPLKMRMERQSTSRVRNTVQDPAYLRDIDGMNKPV
T1 sequence (P25106 whole entry): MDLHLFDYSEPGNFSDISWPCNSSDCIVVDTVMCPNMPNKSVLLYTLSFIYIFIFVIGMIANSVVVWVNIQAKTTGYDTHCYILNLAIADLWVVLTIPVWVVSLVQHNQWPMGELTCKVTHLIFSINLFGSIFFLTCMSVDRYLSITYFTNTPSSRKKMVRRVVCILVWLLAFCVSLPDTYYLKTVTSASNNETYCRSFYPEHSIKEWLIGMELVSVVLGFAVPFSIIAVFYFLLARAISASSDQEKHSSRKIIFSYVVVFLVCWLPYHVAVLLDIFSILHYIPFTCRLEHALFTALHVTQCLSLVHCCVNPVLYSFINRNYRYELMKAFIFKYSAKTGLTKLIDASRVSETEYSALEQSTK

Take `CC(C)C[C@H](NC(=O)[C@H](Cc1ccccc1)NC(=O)CNC(=O)CNC(=O)[C@@H](N)Cc1ccc(O)cc1)C(=O)N[C@@H](CCCN=C(N)N)C(=O)N[C@@H](CCCN=C(N)N)C(=O)N[C@@H](CCC(N)=O)C(=O)N[C@@H](Cc1ccccc1)C(=O)N[C@@H](CCCCN)C(=O)N[C@H](C(=O)N[C@H](C(=O)N[C@H](C(=O)O)[C@@H](C)O)C(C)C)C(C)C` [Dynorphin B]: the “Mean ± SEM (Figure 6h, ACKR)” value in assay [1] (setting [8]) is on record as 90,67 ± 2,557, n=3; in assay [1] (setting [9]), 114,2 ± 9,487, n=3. In addition, the activation in assay [2] (setting [10]) is -1.26%; in assay [2] (setting [11]), -2.57%; in assay [2] (setting [12]), 5.93%; in assay [4] (setting [13]), 0.688%; in assay [4] (setting [14]), -2.18%; in assay [4] (setting [15]), 1.67%. Moreover, the activation in assay [5] (setting [16]) is -2.46%; in assay [5] (setting [17]), -6.11%; in assay [5] (setting [18]), 11.3%; in assay [6] (replicate 1), -12.2%; in assay [6] (replicate 2), 7.15%; in assay [6] (replicate 3), -6.95%. Further, the values for the activation in assay [7] (setting [19]), in assay [7] (setting [20]) and in assay [7] (setting [21]) were -0.194%, -0.375% and -3.12%, respectively. Further, the “Mean ± SEM (Figure 6h, KOR)” value in assay [3] (setting [8]) is 30,69 ± 2,71, n=3; in assay [3] (setting [9]), 28,51 ± 2,354, n=3.
For the compound `C[C@H](NC(=O)CNC(=O)[C@@H](NC(=O)[C@H](Cc1ccccc1)NC(=O)CNC(=O)CNC(=O)[C@@H](N)Cc1ccccc1)[C@@H](C)O)C(=O)N[C@@H](CCCNC(=N)N)C(=O)N[C@@H](CCCCN)C(=O)N[C@@H](CO)C(=O)N[C@@H](C)C(=O)N[C@@H](CCCNC(=N)N)C(=O)N[C@@H](CCCCN)C(N)=O` [Nociceptin 1-13], the activation in assay [2] (setting [10]) was -0.0637%; in assay [2] (setting [11]) it was 0.246%; in assay [2] (setting [12]), 0.411%; in assay [4] (setting [13]) it was 0.793%; in assay [4] (setting [14]) it was -0.93%; in assay [4] (setting [15]), 1.52%. Moreover, the activation was -3.96% in assay [5] (setting [16]); -2.66% in assay [5] (setting [17]); -1.89% in assay [5] (setting [18]); 20.2% in assay [6] (replicate 1); -3.76% in assay [6] (replicate 2); 28.2% in assay [6] (replicate 3). Further, the activation is 0.552% in assay [7] (setting [19]), -0.975% in assay [7] (setting [20]) and -0.351% in assay [7] (setting [21]).
Take `CC(C)C[C@H](NC(=O)[C@H](CCCCN)NC(=O)[C@H](CCCN=C(N)N)NC(=O)[C@H](C)NC(=O)[C@H](CO)NC(=O)[C@H](CCCCN)NC(=O)[C@H](CCCN=C(N)N)NC(=O)[C@H](C)NC(=O)CNC(=O)[C@@H](NC(=O)[C@H](Cc1ccccc1)NC(=O)CNC(=O)CNC(=O)[C@@H](N)Cc1ccccc1)[C@@H](C)O)C(=O)N[C@@H](C)C(=O)N[C@@H](CC(N)=O)C(=O)N[C@@H](CCC(N)=O)C(=O)O` [Nociceptin]: the activation in assay [2] (setting [10]) was -2.47%; in assay [2] (setting [11]) it was -0.825%; in assay [4] (setting [13]), -0.0919%; in assay [4] (setting [14]) it was -3.09%; in assay [5] (setting [16]), -2.94%; in assay [5] (setting [17]) it was -7.28%. For the same compound, the activation in assay [6] (replicate 1) was 3.24%; in assay [6] (replicate 2), -19.8%; in assay [7] (setting [19]), -0.76%; in assay [7] (setting [20]), 0.601%.
